Data: patent publication US7538132B2, “Isoxazolo derivatives” (Hoffman-La Roche Inc., priority 2005, dated 2009)

Molecular target: T1, GABA A receptor α5β3γ2 (hα5) (Homo sapiens, UniProt P18507+P31644)
T1 construct: expressed in transfected cells; host or cells: HEK293 (transiently transfected; membranes prepared from cell pellets)
Assay: [3H]flumazenil competition binding assay, human GABA A α5β3γ2 receptors
Details: displacement of [3H]flumazenil (0.5 nM) from membranes of HEK293 cells expressing human α5β3γ2; 1 hour at 4° C.; means of two determinations
Experimental: The affinity of compounds at GABA A receptor subtypes was measured by competition for [3H]flumazenil (85 Ci/mmol; Roche) binding to HEK293 cells expressing rat (stably transfected) or human (transiently transfected) receptors of composition α1β3γ2, α2⊖3γ2, α3β3γ2 and α5β3γ2.
Cell pellets were suspended in Krebs-tris buffer (4.8 mM KCl, 1.2 mM CaCl2, 1.2 mM MgCl2, 120 mM NaCl, 15 mM Tris; pH 7.5; binding assay buffer), homogenized by polytron for ca. 20 sec on ice and centrifuged for 60 min at 4° C. (50000 g; Sorvall, rotor: SM24=20000 rpm). The cell pellets were resuspended in Krebs-tris buffer and homogenized by polytron for ca. 15 sec on ice. Protein was measured (Bradford method, Bio-Rad) and aliquots of 1 mL were prepared and stored at −80° C.
Assays were incubated to equilibrium for 1 hour at 4° C. and harvested onto GF/C uni-filters (Packard) by filtration using a Packard harvester and washing with ice-cold wash buffer (50 mM Tris; pH 7.5). After drying, filter-retained radioactivity was detected by liquid scintillation counting. Ki values were calculated using Excel-Fit (Microsoft) and are the means of two determinations.

| Ki | SMILES |
| --- | --- |
| 0.0066 µM | Cc1onc(-c2ccccc2)c1C(=O)c1c[nH]c(C(=O)NCC2CC2)c1 [Example 12, 4-(5-Methyl-3-phenyl-isoxazole-4-carbonyl)-1H-pyrrole-2-carboxylic acid cyclopropylmethyl-amide] |
| 0.00795 µM | Cc1onc(-c2ccccc2)c1C(=O)c1c[nH]c(C(=O)NC2CCC2)c1 [Example 15, 4-(5-Methyl-3-phenyl-isoxazole-4-carbonyl)-1H-pyrrole-2-carboxylic acid cyclobutylamide] |
| 0.00285 µM | Cc1onc(-c2ccccc2)c1C(=O)c1c[nH]c(C(=O)NC2CCOCC2)c1 [Example 26, 4-(5-Methyl-3-phenyl-isoxazole-4-carbonyl)-1H-pyrrole-2-carboxylic acid (tetrahydro-pyran-4-yl)-amide] |
| 0.00365 µM | Cc1onc(-c2ccc(Br)cc2)c1C(=O)c1c[nH]c(C(=O)NC2CCOCC2)c1 [Example 61, 4-[3-(4-Bromo-phenyl)-5-methyl-isoxazole-4-carbonyl]-1H-pyrrole-2-carboxylic acid (tetrahydro-pyran-4-yl)-amide] |
| 0.00685 µM | Cc1onc(-c2ccc(Br)cc2)c1C(=O)c1c[nH]c(C(=O)NC(C)C)c1 [Example 84, 4-[3-(4-Bromo-phenyl)-5-methyl-isoxazole-4-carbonyl]-1H-pyrrole-2-carboxylic acid isopropylamide] |
| 0.0045 µM | Cc1onc(-c2ccc(Br)cc2)c1C(=O)c1c[nH]c(C(=O)N[C@H]2CC[C@H](O)CC2)c1 [Example 123, 4-[3-(4-Bromo-phenyl)-5-methyl-isoxazole-4-carbonyl]-1H-pyrrole-2-carboxylic acid (4-hydroxy-cyclohexyl)-amide] |
| 0.0045 µM | Cc1onc(-c2ccc(Br)cc2)c1C(=O)c1c[nH]c(C(=O)NC2CCOC(C)(C)C2)c1 (centres unmarked) [Example 135, 4-[3-(4-Bromo-phenyl)-5-methyl-isoxazole-4-carbonyl]-1H-pyrrole-2-carboxylic acid (2,2-dimethyl-tetrahydro-pyran-4-yl)-amide] |
| 0.00165 µM | Cc1onc(-c2ccc(F)cc2)c1C(=O)c1c[nH]c(C(=O)NC2CCCC2)c1 [Example 136, 4-[3-(4-Fluoro-phenyl)-5-methyl-isoxazole-4-carbonyl]-1H-pyrrole-2-carboxylic acid cyclopentylamide] |
| 0.0041 µM | Cc1onc(-c2ccc(F)cc2)c1C(=O)c1c[nH]c(C(=O)NC2CC2)c1 [Example 137, 4-[3-(4-Fluoro-phenyl)-5-methyl-isoxazole-4-carbonyl]-1H-pyrrole-2-carboxylic acid cyclopropylamide] |
| 0.0036 µM | Cc1onc(-c2ccc(F)cc2)c1C(=O)c1c[nH]c(C(=O)NC2CCC2)c1 [Example 138, 4-[3-(4-Fluoro-phenyl)-5-methyl-isoxazole-4-carbonyl]-1H-pyrrole-2-carboxylic acid cyclobutylamide] |
| 0.0099 µM | Cc1onc(-c2ccc(F)cc2)c1C(=O)c1c[nH]c(C(=O)NCCO)c1 [Example 140, 4-[3-(4-Fluoro-phenyl)-5-methyl-isoxazole-4-carbonyl]-1H-pyrrole-2-carboxylic acid (2-hydroxy-ethyl)-amide] |
| 0.00605 µM | Cc1onc(-c2ccc(F)cc2)c1C(=O)c1c[nH]c(C(=O)NCCc2cnc[nH]2)c1 [Example 141, 4-[3-(4-Fluoro-phenyl)-5-methyl-isoxazole-4-carbonyl]-1H-pyrrole-2-carboxylic acid [2-(1H-imidazol-4-yl)-ethyl]-amide] |
| 0.00775 µM | C#CCNC(=O)c1cc(C(=O)c2c(-c3ccc(F)cc3)noc2C)c[nH]1 [Example 145, 4-[3-(4-Fluoro-phenyl)-5-methyl-isoxazole-4-carbonyl]-1H-pyrrole-2-carboxylic acid prop-2-ynylamide] |
| 0.00155 µM | Cc1onc(-c2ccc(F)cc2)c1C(=O)c1c[nH]c(C(=O)NC2CCOCC2)c1 [Example 146, 4-[3-(4-Fluoro-phenyl)-5-methyl-isoxazole-4-carbonyl]-1H-pyrrole-2-carboxylic acid (tetrahydro-pyran-4-yl)-amide] |
| 0.0052 µM | Cc1onc(-c2ccc(Cl)cc2)c1C(=O)c1c[nH]c(C(=O)NC2CCCC2)c1 [Example 152, 4-[3-(4-Chloro-phenyl)-5-methyl-isoxazole-4-carbonyl]-1H-pyrrole-2-carboxylic acid cyclopentylamide] |
| 0.00755 µM | Cc1onc(-c2ccc(Cl)cc2)c1C(=O)c1c[nH]c(C(=O)NCCO)c1 [Example 153, 4-[3-(4-Chloro-phenyl)-5-methyl-isoxazole-4-carbonyl]-1H-pyrrole-2-carboxylic acid (2-hydroxy-ethyl)-amide] |

| Ki | SMILES |
| --- | --- |
| 0.0061 µM | Cc1onc(-c2ccc(Cl)cc2)c1C(=O)c1c[nH]c(C(=O)NC2CC2)c1 [Example 154, 4-[3-(4-Chloro-phenyl)-5-methyl-isoxazole-4-carbonyl]-1H-pyrrole-2-carboxylic acid cyclopropylamide] |
| 0.00385 µM | Cc1onc(-c2ccc(Cl)cc2)c1C(=O)c1c[nH]c(C(=O)NCC2CC2)c1 [Example 156, 4-[3-(4-Chloro-phenyl)-5-methyl-isoxazole-4-carbonyl]-1H-pyrrole-2-carboxylic acid cyclopropylmethyl-amide] |
| 0.00745 µM | C#CCNC(=O)c1cc(C(=O)c2c(-c3ccc(Cl)cc3)noc2C)c[nH]1 [Example 157, 4-[3-(4-Chloro-phenyl)-5-methyl-isoxazole-4-carbonyl]-1H-pyrrole-2-carboxylic acid prop-2-ynylamide] |
| 0.0069 µM | Cc1onc(-c2ccc(Cl)cc2)c1C(=O)c1c[nH]c(C(=O)NCc2ccco2)c1 [Example 160, 4-[3-(4-Chloro-phenyl)-5-methyl-isoxazole-4-carbonyl]-1H-pyrrole-2-carboxylic acid (furan-2-ylmethyl)-amide] |
| 0.0014 µM | Cc1onc(-c2ccc(Cl)cc2)c1C(=O)c1c[nH]c(C(=O)NC2CCOCC2)c1 [Example 162, 4-[3-(4-Chloro-phenyl)-5-methyl-isoxazole-4-carbonyl]-1H-pyrrole-2-carboxylic acid (tetrahydro-pyran-4-yl)-amide] |
| 0.0063 µM | Cc1onc(-c2ccccc2F)c1C(=O)c1c[nH]c(C(=O)NC2CCCC2)c1 [Example 173, 4-[3-(2-Fluoro-phenyl)-5-methyl-isoxazole-4-carbonyl]-1H-pyrrole-2-carboxylic acid cyclopentylamide] |
| 0.0061 µM | Cc1onc(-c2cccc(F)c2)c1C(=O)c1c[nH]c(C(=O)NC2CCCC2)c1 [Example 178, 4-[3-(3-Fluoro-phenyl)-5-methyl-isoxazole-4-carbonyl]-1H-pyrrole-2-carboxylic acid cyclopentylamide] |
| 0.00245 µM | CCc1onc(-c2ccccc2)c1C(=O)c1c[nH]c(C(=O)NC2CCOCC2)c1 [Example 210, 4-(5-Ethyl-3-phenyl-isoxazole-4-carbonyl)-1H-pyrrole-2-carboxylic acid (tetrahydro-pyran-4-yl)-amide] |
| 0.0021 µM | CCc1onc(-c2ccccc2)c1C(=O)c1c[nH]c(C(=O)NC2CCCC2)c1 [Example 215, 4-(5-Ethyl-3-phenyl-isoxazole-4-carbonyl)-1H-pyrrole-2-carboxylic acid cyclopentylamide] |
| 0.0023 µM | CCc1onc(-c2ccccc2)c1C(=O)c1c[nH]c(C(=O)NCC2CC2)c1 [Example 216, 4-(5-Ethyl-3-phenyl-isoxazole-4-carbonyl)-1H-pyrrole-2-carboxylic acid cyclopropylmethyl-amide] |
| 0.00485 µM | CCc1onc(-c2ccccc2)c1C(=O)c1c[nH]c(C(=O)NC2CC2)c1 [Example 217, 4-(5-Ethyl-3-phenyl-isoxazole-4-carbonyl)-1H-pyrrole-2-carboxylic acid cyclopropylamide] |
| 0.0043 µM | COCc1onc(-c2ccc(F)cc2)c1C(=O)c1c[nH]c(C(=O)NC2CCOCC2)c1 [Example 221, 4-[3-(4-Fluoro-phenyl)-5-methoxymethyl-isoxazole-4-carbonyl]-1H-pyrrole-2-carboxylic acid (tetrahydro-pyran-4-yl)-amide] |
| 0.008 µM | Cc1onc(-c2ccc(Br)cc2)c1C(=O)c1cc(C(=O)NC2CCOCC2)n(C)c1 [Example 231, 4-[3-(4-Bromo-phenyl)-5-methyl-isoxazole-4-carbonyl]-1-methyl-1H-pyrrole-2-carboxylic acid (tetrahydro-pyran-4-yl)-amide] |
| 0.0087 µM | Cc1onc(-c2ccc(Br)cc2)c1C(=O)c1cc(C(=O)NCCCN2CCOCC2)n(C)c1 [Example 232, 4-[3-(4-Bromo-phenyl)-5-methyl-isoxazole-4-carbonyl]-1-methyl-1H-pyrrole-2-carboxylic acid (3-morpholin-4-yl-propyl)-amide] |
| 0.0042 µM | Cc1onc(-c2ccc(F)c(F)c2)c1C(=O)c1c[nH]c(C(=O)NC2CCOCC2)c1 [Example 254, 4-[3-(3,4-Difluoro-phenyl)-5-methyl-isoxazole-4-carbonyl]-1H-pyrrole-2-carboxylic acid (tetrahydro-pyran-4-yl)-amide] |
| 0.0064 µM | Cc1onc(-c2ccc(F)c(F)c2)c1C(=O)c1c[nH]c(C(=O)NC2CCCC2)c1 [Example 255, 4-[3-(3,4-Difluoro-phenyl)-5-methyl-isoxazole-4-carbonyl]-1H-pyrrole-2-carboxylic acid cyclopentylamide] |
